Laboratory results published in US20110306606A1, “NOVEL 2,6-SUBSTITUTED-3-NITROPYRIDINE DERIVATIVE, METHOD FOR PREPARING SAME, AND PHARMACEUTICAL COMPOSITION INCLUDING SAME” (priority 2008, published 2011).

Test system: Osteoblasts (Calvarial cells)
Details: ICR, mouse, 72 h, 1 μM
Procedure: For the preparation of osteoblasts (Calvarial cells), the calvaria were aseptically dissected from 1 to 2-day-old neonatal ICR mice and subjected to continuous reaction with a 0.2% collagenase solution to separate osteoblasts. The cell-suspended supernatant was centrifuged to recover osteoblasts which were grown to full confluence in an α-MEM supplemented with 10% FBS and then diluted to a desired cell density for use in the experiment.
Cytotoxicity of the compounds of the present invention was evaluated by carrying out the experiment described below.
The vehicle control group was established to contain 0.2% DMSO. 100 μL/well of the diluted drugs were dispensed into 96-well plates to which osteoblasts (calvarial cells) prepared in Experimental Example 1 were then added at a density of 1.0×10^4 cells/100 μL/well. Here, the final compound concentration in the cell culture was 1 μM, and the vehicle control group contained 0.1% DMSO. The cells were cultured in a 5% CO2 inhibitor at 37° for 72 hours. 25 μL of 3-(4,5-dimethyl-2-thiazolyl)-2,5-diphenyl-2H-tetrazolium bromide (MTT) dissolved in PBS (2 mg/mL) was added to each cell culture 4 hours before the end of culture. After completion of the reaction, the plates were centrifuged, the media were discarded, and 100 μL of formazan was added and dissolved in dimethyl sulfoxide (DMSO). Finally, the absorbance of the developed plates was measured at 540 nm. The cell viability was expressed as % concentration in comparison with the vehicle control group.

Row | Structure (SMILES) | Cell viability (%) Calvarial cell
1 | CNc1ccc([N+](=O)[O-])c(Nc2cccc(N)c2)n1 [Compound 70, 2-[3-(amino)phenylamino]-6-(methylamino)-3-nitropyridine] | 105%
2 | CC(C)Nc1ccc([N+](=O)[O-])c(Nc2cccc(N)c2)n1 [Compound 71, 2-[3-(amino)phenylamino]-6-(isopropylamino)-3-nitropyridine] | 114%
3 | CC(C)CNc1ccc([N+](=O)[O-])c(Nc2cccc(N)c2)n1 [Compound 72, 2-[3-(amino)phenylamino]-6-(isobutylamino)-3-nitropyridine] | 106%
4 | CC(C)(C)Nc1ccc([N+](=O)[O-])c(Nc2cccc(N)c2)n1 [Compound 73, 2-[3-(amino)phenylamino]-6-(t-butylamino)-3-nitropyridine] | 102%
5 | Nc1cccc(Nc2nc(N3CCC(O)CC3)ccc2[N+](=O)[O-])c1 [Compound 74, 2-[3-(amino)phenylamino]-6-(4-hydroxypiperidino)-3-nitropyridine] | 93%
6 | CC(C)c1nccn1-c1ccc([N+](=O)[O-])c(Nc2cccc(N)c2)n1 [Compound 75, 2-[3-(amino)phenylamino]-6-[(2-isopropyl)imidazol-1-yl]-3-nitropyridine] | 103%
7 | Nc1cccc(Nc2nc(N3CCNCC3)ccc2[N+](=O)[O-])c1 [Compound 76, 2-[3-(amino)phenylamino]-6-(piperazin-1-yl)-3-nitropyridine] | 102%
8 | CN1CCN(c2ccc([N+](=O)[O-])c(Nc3cccc(N)c3)n2)CC1 [Compound 77, 2-[3-(amino)phenylamino]-6-(4-methylpiperazin-1-yl)-3-nitropyridine] | 100%
9 | Nc1cccc(Nc2nc(N3CCOCC3)ccc2[N+](=O)[O-])c1 [Compound 78, 2-[3-(amino)phenylamino]-6-morpholino-3-nitropyridine] | 93%
10 | Nc1cccc(Nc2nc(NCCCn3ccnc3)ccc2[N+](=O)[O-])c1 [Compound 82, 2-[3-(amino)phenylamino]-6-[(3-imidazol-1-yl)propylamino]-3-nitropyridine] | 106%
11 | Cc1nccn1-c1ccc([N+](=O)[O-])c(Nc2cccc(N)c2)n1 [Compound 85, 2-[3-(amino)phenylamino]-6-[(2-methyl)imidazol-1-yl]-3-nitropyridine] | 101%
12 | CC(C)CNc1ccc([N+](=O)[O-])c(Nc2ccc(-n3ccnc3)cc2)n1 [Compound 88, 2-[4-(imidazol-1-yl)phenylamino]-6-(isobutylamino)-3-nitropyridine] | 96%
13 | CC(=O)c1cccc(Nc2nc(NCC(C)C)ccc2[N+](=O)[O-])c1 [Compound 98, 2-(3-acetylphenylamino)-6-(isobutylamino)-3-nitropyridine] | 92%
14 | CC(C)Nc1ccc([N+](=O)[O-])c(Nc2ccc(N3CCOCC3)cc2)n1 [Compound 109, 2-(4-morpholinophenylamino)-6-(isopropylamino)-3-nitropyridine] | 101%
15 | CC(C)c1nccn1-c1ccc([N+](=O)[O-])c(Nc2ccc(N3CCOCC3)cc2)n1 [Compound 114, 2-(4-morpholinophenylamino)-6-[(2-isopropyl)imidazol-1-yl]-3-nitropyridine] | 92%
16 | O=[N+]([O-])c1ccc(NCc2ccncc2)nc1Nc1ccc(N2CCOCC2)cc1 [Compound 116, 2-(4-morpholinophenylamino)-6-[(4-pyridyl)methylamino]-3-nitropyridine] | 89%
17 | CC(C)(C)Nc1ccc([N+](=O)[O-])c(Nc2ccc(N3CCOCC3)cc2)n1 [Compound 117, 2-(4-morpholinophenylamino)-6-(t-butylamino)-3-nitropyridine] | 90%
18 | CNc1ccc([N+](=O)[O-])c(Nc2ccc(F)c(F)c2)n1 [Compound 122, 2-[(3,4-difluoro)phenylamino]-6-(methylamino)-3-nitropyridine] | 121%
19 | CC(C)Nc1ccc([N+](=O)[O-])c(Nc2ccc(F)c(F)c2)n1 [Compound 123, 2-[(3,4-difluoro)phenylamino]-6-(isopropylamino)-3-nitropyridine] | 112%
20 | CC(C)CNc1ccc([N+](=O)[O-])c(Nc2ccc(F)c(F)c2)n1 [Compound 124, 2-[(3,4-difluoro)phenylamino]-6-(isobutylamino)-3-nitropyridine] | 106%
21 | O=[N+]([O-])c1ccc(N2CCC(O)CC2)nc1Nc1ccc(F)c(F)c1 [Compound 126, 2-[(3,4-difluoro)phenylamino]-6-(4-hydroxypiperidino)-3-nitropyridine] | 95%
22 | CN1CCN(c2ccc([N+](=O)[O-])c(Nc3ccc(F)c(F)c3)n2)CC1 [Compound 128, 2-[(3,4-difluoro)phenylamino]-6-(4-methylpiperazin-1-yl)-3-nitropyridine] | 87%
23 | O=[N+]([O-])c1ccc(N2CCOCC2)nc1Nc1ccc(F)c(F)c1 [Compound 129, 2-[(3,4-difluoro)phenylamino]-6-morpholino-3-nitropyridine] | 88%
24 | NC1CCN(c2ccc([N+](=O)[O-])c(Nc3ccc(F)c(F)c3)n2)CC1 [Compound 130, 2-[(3,4-difluoro)phenylamino]-6-(4-aminopiperidino)-3-nitropyridine] | 101%
25 | O=[N+]([O-])c1ccc(NCc2ccncc2)nc1Nc1ccc(F)c(F)c1 [Compound 131, 2-[(3,4-difluoro)phenylamino]-6-[(4-pyridyl)methylamino]-3-nitropyridine] | 100%
26 | O=[N+]([O-])c1ccc(N2CCC(O)CC2)nc1Nc1ccc(-c2csc(C3CCCCC3)n2)cc1 [Compound 155, 2-[4-(2-cyclohexylthiazol-4-yl)phenylamino]-6-(4-hydroxypiperidino)-3-nitropyridine] | 105%
27 | CC(C)c1nccn1-c1ccc([N+](=O)[O-])c(Nc2ccc(-c3csc(C4CCCCC4)n3)cc2)n1 [Compound 157, 2-[4-(2-cyclohexylthiazol-4-yl)phenylamino]-6-[(2-isopropyl)imidazol-1-yl]-3-nitropyridine] | 115%
28 | O=[N+]([O-])c1ccc(N2CCNCC2)nc1Nc1ccc(-c2csc(C3CCCCC3)n2)cc1 [Compound 158, 2-[4-(2-cyclohexylthiazol-4-yl)phenylamino]-6-(piperazin-1-yl)-3-nitropyridine] | 88%
29 | O=[N+]([O-])c1ccc(N2CCOCC2)nc1Nc1ccc(-c2csc(C3CCCCC3)n2)cc1 [Compound 160, 2-[4-(2-cyclohexylthiazol-4-yl)phenylamino]-6-morpholino-3-nitropyridine] | 105%
30 | O=[N+]([O-])c1ccc(NCc2cccnc2)nc1Nc1ccc(-c2csc(C3CCCCC3)n2)cc1 [Compound 162, 2-[4-(2-cyclohexylthiazol-4-yl)phenylamino]-6-[(3-pyridyl)methylamino]-3-nitropyridine] | 67%
